This is an account of results in BindingDB's records for doi:10.1111/cbdd.12778 (Shandong University, 2016).

Some results are limits rather than exact numbers.

One test has as its target T1, Histone deacetylase 8 (Homo sapiens, UniProt Q9BY41).
T1 sequence (Q9BY41 whole entry): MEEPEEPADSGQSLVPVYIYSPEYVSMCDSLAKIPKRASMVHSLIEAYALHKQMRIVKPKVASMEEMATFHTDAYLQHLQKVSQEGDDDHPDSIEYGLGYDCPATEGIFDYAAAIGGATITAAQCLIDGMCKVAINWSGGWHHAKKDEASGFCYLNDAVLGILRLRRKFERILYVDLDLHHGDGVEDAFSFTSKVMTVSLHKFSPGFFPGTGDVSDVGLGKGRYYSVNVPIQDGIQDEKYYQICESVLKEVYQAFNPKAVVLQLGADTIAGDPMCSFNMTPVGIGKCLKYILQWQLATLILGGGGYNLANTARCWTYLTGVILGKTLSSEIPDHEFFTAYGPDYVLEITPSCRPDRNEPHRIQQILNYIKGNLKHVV
Kind of test: In vitro HDAC8 Assay. How it is done: Briefly, the HDAC8 enzyme was diluted 20 times. Then, 10 μL of HDAC8 solution was mixed with compounds at various concentrations (50 μL). Then, 40 μL of the substrate [Boc-Lys-(acetyl)-AMC, 300 μm] was added, and the mixture was incubated at 37 °C for 30 min. Subsequently, the reaction was stopped by the addition of 100 μL of developer containing trypsin (10 μg/mL) and TSA (2 μm). Fluorescence intensity was measured by a microplate reader at excitation and emission wavelengths of 390 and 460 nm, respectively.

The target in a further test is T2, Aminopeptidase N (Sus scrofa, UniProt P15145).
T2 sequence (P15145 whole entry): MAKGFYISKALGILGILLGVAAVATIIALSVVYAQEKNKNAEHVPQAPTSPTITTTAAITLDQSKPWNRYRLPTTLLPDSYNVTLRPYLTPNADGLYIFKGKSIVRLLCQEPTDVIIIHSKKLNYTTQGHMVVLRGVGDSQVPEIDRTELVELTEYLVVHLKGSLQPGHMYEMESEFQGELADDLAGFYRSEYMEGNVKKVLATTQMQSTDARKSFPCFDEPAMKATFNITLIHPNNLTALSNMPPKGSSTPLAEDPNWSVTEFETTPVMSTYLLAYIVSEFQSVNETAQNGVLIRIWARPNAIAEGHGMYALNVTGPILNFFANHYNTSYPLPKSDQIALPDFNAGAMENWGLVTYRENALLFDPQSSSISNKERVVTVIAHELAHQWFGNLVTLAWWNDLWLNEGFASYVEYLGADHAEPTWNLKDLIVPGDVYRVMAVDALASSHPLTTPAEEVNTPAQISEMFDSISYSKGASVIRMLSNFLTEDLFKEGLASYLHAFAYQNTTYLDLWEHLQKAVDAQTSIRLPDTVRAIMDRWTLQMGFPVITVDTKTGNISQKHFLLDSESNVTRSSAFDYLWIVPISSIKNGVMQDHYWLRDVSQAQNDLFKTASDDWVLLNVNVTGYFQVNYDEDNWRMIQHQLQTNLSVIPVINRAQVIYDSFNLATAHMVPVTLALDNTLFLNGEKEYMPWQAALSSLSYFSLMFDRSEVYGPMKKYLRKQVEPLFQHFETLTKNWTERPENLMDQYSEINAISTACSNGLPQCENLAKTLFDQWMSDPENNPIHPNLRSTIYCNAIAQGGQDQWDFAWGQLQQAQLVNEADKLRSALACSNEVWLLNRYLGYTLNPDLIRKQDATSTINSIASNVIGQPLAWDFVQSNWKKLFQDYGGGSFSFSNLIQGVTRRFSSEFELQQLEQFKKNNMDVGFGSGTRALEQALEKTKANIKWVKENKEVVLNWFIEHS
Kind of test: APN Inhibition Assay. The following applies: pH 7.2. The procedure: Briefly, the assay was performed in 96-well plates in […] PBS, pH 7.2 as the assay buffer, at 37 °C. The APN solution was mixed with compounds at various concentrations and incubated at 37 °C for 5 min. Subsequently, the substrate (l-leucine-p-nitroanilide) was added and the mixture was incubated for 30 min at 37°C.

A word on the IC50: it is the concentration needed to halve the response being measured. For the compound `CC1(C)CCC(C)(C)c2cc(NC(=O)c3ccc(C(=O)O)cc3)ccc21` [4-[(5,5,8,8-tetramethyl-5,6,7,8-tetrahydronaphthalen-2-yl)carbamoyl]benzoic acid], the IC50 against Histone deacetylase 8 and at Aminopeptidase N was above 100 µM in each case.

In turn, `O=C(CCCCCCC(=O)Nc1ccccc1)NO` [Zolinza] gave an IC50 at Aminopeptidase N above 100 µM.

Consider `CC1(C)CCC(C)(C)c2cc(NC(=O)c3ccc(C(=O)NO)cc3)ccc21` [N1-hydroxy-N4-(5,5,8,8-tetramethyl-5,6,7,8-tetrahydronaphthalen-2-yl)terephthalamide (7b)], for which the figures for the IC50 at Histone deacetylase 8 and at Aminopeptidase N were 4.3 µM and above 100 µM, respectively.
